Experimental data taken from US20260008787A1, “FUSED RING KRAS INHIBITORS FOR TREATING DISEASE” (BLOSSOMHILL THERAPEUTICS, INC., priority 2022, published 2026).

Key:
AGS (G12D) = assay: Cell proliferation assay (CellTiter-Glo, 72 hours), AGS; format: cell-based; conditions: 72 h, 384-well, CellTiter-Glo 2.0
Experimental: (§1) Two thousand KRAS mutant cells per well were seeded in 384-well white plate and then treated with indicated compounds for 72 hours at 37° C. and 5% CO2. Cell proliferation was measured using CellTiter-Glo 2.0 luciferase-based ATP detection assay (Promega, Madison, WI) following the manufacturer's protocol. IC50 values were determined using Prism software (GraphPad Software, San Diego, CA).

KRAS G12D = KRAS G12D (Homo sapiens, UniProt P01116, G12D); assay: biochemical
KRAS G12D, sequence (P01116 1-188 isoform P01116-2 G12D): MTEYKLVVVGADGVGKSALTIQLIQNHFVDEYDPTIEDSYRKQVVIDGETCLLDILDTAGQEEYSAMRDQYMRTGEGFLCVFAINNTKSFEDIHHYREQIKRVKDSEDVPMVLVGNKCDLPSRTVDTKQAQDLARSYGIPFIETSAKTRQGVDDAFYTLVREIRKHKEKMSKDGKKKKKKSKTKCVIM

SW620 (KRAS G12V) [1] = assay: Cell proliferation assay (CellTiter-Glo, 72 hours), SW620; format: cell-based; conditions: Homo sapiens, SW-620, 72 h, 384-well, CellTiter-Glo 2.0
Experimental: as §1

KRAS G12V = KRAS G12V (Homo sapiens, UniProt P01116, G12V); assay: biochemical
KRAS G12V, sequence (P01116 1-188 isoform P01116-2 G12V): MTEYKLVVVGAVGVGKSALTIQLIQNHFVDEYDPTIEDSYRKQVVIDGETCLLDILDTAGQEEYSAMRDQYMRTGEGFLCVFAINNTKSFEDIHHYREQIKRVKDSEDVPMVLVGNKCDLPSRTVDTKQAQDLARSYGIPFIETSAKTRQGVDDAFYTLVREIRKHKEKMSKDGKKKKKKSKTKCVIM

GP2D (KRAS G12D) [2] = assay: Cell proliferation assay (CellTiter-Glo, 72 hours), GP2D; format: cell-based; conditions: GP2d, 72 h, 384-well, CellTiter-Glo 2.0
Experimental: as §1

[3] = system: Phospho-ERK in SW620 (KRAS G12V) cells; assay: Kinase phosphorylation assay (Phospho-ERK), SW620; format: cell-based; conditions: Homo sapiens, SW-620, 3 hours treatment, normalized to β-actin, read-out: pERK ½ IC50 (nM), SW620
Experimental: (§2) KRAS mutant cells were plated in clear bottom 96 well plates at a density of 50,000-120,000 cells per well. Cells were allowed to attach overnight and then treated with compounds for 3 hours. After treatment, cells were fixed with 10% buffered formalin for 20 minutes at room temperature, washed with PBS, and then permeabilized with ice cold 100% methanol for 10 minutes to overnight at −20° C. Odyssey Blocking Buffer (LiCOR Biosciences: 927-60001) was added to each well for 1 hour at room temperature prior to incubation with primary antibodies overnight at 4° C. The primary antibodies used were as follows: Phospho-ERK (Cell Signaling: CS-9101) diluted to 1:250 and […] (Cell Signaling: CS-3700) diluted to 1:2000 in Odyssey Blocking Buffer+0.05% Tween20. Plates were washed 3× with Wash Buffer (PBS+0.1% Tween20) and incubated with secondary antibodies for 2 hours at room temperature. The following secondary antibodies were used: goat anti-rabbit-800 (LI-COR: 926-32211) and goat anti-mouse-680 (LICOR: 926-68070) both diluted to 1:2000 in Odyssey Blocking Buffer+0.05% Tween20. […] Phospho-ERK signal was normalized to β-actin signal for each well and the percent of DMSO control values were calculated. IC50 values were calculated using the sigmoidal dose-response (variable slope) equation in GraphPad Prism 4.

[4] = system: Phospho-ERK in AGS (KRAS G12D) cells; assay: Kinase phosphorylation assay (Phospho-ERK), AGS; format: cell-based; conditions: 3 hours treatment, normalized to β-actin, read-out: pERK ½ IC50 (nM), AGS
Experimental: as §2

CAPAN-2 (KRAS G12V) = assay: Cell proliferation assay Method B (5 days), CAPAN-2; format: cell-based; conditions: Homo sapiens, Capan-2, 120 h, 96-well, read-out: Anti-Cell Proliferation IC50 (nM), CAPAN-2
Experimental: as §1, with “Method B: Two” for “Two”, “96-well black” for “384-well white”, “5 days” for “72 hours”

HPAC (KRAS G12D) = assay: Cell proliferation assay Method B (5 days), HPAC; format: cell-based; conditions: Homo sapiens, 120 h, 96-well, read-out: Anti-Cell Proliferation IC50 (nM), HPAC
Experimental: as §1, with “Method B: Two” for “Two”, “96-well black” for “384-well white”, “5 days” for “72 hours”

PANC0403 (KRAS G12D) = assay: Cell proliferation assay Method B (5 days), PANC0403; format: cell-based; conditions: Homo sapiens, Panc 04.03, 120 h, 96-well, read-out: Anti-Cell Proliferation IC50 (nM), PANC0403
Experimental: as §1, with “Method B: Two” for “Two”, “96-well black” for “384-well white”, “5 days” for “72 hours”

SW620 (KRAS G12V) [5] = assay: Cell proliferation assay Method B (5 days), SW620; format: cell-based; conditions: Homo sapiens, SW-620, 120 h, 96-well, read-out: Anti-Cell Proliferation IC50 (nM), SW620
Experimental: as §1, with “Method B: Two” for “Two”, “96-well black” for “384-well white”, “5 days” for “72 hours”

AsPC1 (KRAS G12D) = assay: Cell proliferation assay Method B (5 days), AsPC1; format: cell-based; conditions: Homo sapiens, ASPC1, 120 h, 96-well, read-out: Anti-Cell Proliferation IC50 (nM), AsPC1
Experimental: as §1, with “Method B: Two” for “Two”, “96-well black” for “384-well white”, “5 days” for “72 hours”

[6] = system: Phospho-ERK in H2291 (KRAS G12F) cells; assay: Kinase phosphorylation assay (Phospho-ERK), H2291; format: cell-based; conditions: Homo sapiens, NCI-H2291, 3 hours treatment, normalized to β-actin, read-out: pERK ½ IC50 (nM), H2291
Experimental: as §2

[7] = system: Phospho-ERK in HCT116 (KRAS G13D) cells; assay: Kinase phosphorylation assay (Phospho-ERK), HCT116; format: cell-based; conditions: Homo sapiens, HCT-116, 3 hours treatment, normalized to β-actin, read-out: pERK ½ IC50 (nM), HCT116
Experimental: as §2

PANC0504 (KRAS G12D) = assay: Cell proliferation assay Method B (5 days), PANC0504; format: cell-based; conditions: Panc 05.04, 120 h, 96-well, read-out: Anti-Cell Proliferation IC50 (nM), PANC0504
Experimental: as §1, with “Method B: Two” for “Two”, “96-well black” for “384-well white”, “5 days” for “72 hours”

H2291 (KRAS G12F) = assay: Cell proliferation assay Method B (5 days), H2291; format: cell-based; conditions: Homo sapiens, NCI-H2291, 120 h, 96-well, read-out: Anti-Cell Proliferation IC50 (nM), H2291
Experimental: as §1, with “Method B: Two” for “Two”, “96-well black” for “384-well white”, “5 days” for “72 hours”

H358 (KRAS G12C) = assay: Cell proliferation assay Method B (5 days), H358; format: cell-based; conditions: Homo sapiens, NCI-H358, 120 h, 96-well, read-out: Anti-Cell Proliferation IC50 (nM), H358
Experimental: as §1, with “Method B: Two” for “Two”, “96-well black” for “384-well white”, “5 days” for “72 hours”

HCT116 (KRAS G13D) = assay: Cell proliferation assay Method B (5 days), HCT116; format: cell-based; conditions: Homo sapiens, HCT-116, 120 h, 96-well, read-out: Anti-Cell Proliferation IC50 (nM), HCT116
Experimental: as §1, with “Method B: Two” for “Two”, “96-well black” for “384-well white”, “5 days” for “72 hours”

GP2D (KRAS G12D) [8] = assay: Cell proliferation assay Method B (5 days), GP2D; format: cell-based; conditions: 120 h, 96-well, read-out: Anti-Cell Proliferation IC50 (nM), GP2D
Experimental: as §1, with “Method B: Two” for “Two”, “96-well black” for “384-well white”, “5 days” for “72 hours”

MiaPaCa2 (KRAS G12C) = assay: Cell proliferation assay Method B (5 days), MiaPaCa2; format: cell-based; conditions: Homo sapiens, MIA PaCa-2, 120 h, 96-well, read-out: Anti-Cell Proliferation IC50 (nM), MiaPaCa2
Experimental: as §1, with “Method B: Two” for “Two”, “96-well black” for “384-well white”, “5 days” for “72 hours”

H23 (KRAS G12C) = assay: Cell proliferation assay Method B (5 days), H23; format: cell-based; conditions: 120 h, 96-well, read-out: Anti-Cell Proliferation IC50 (nM), H23
Experimental: as §1, with “Method B: Two” for “Two”, “96-well black” for “384-well white”, “5 days” for “72 hours”

AGS (KRAS G12D) = assay: Cell proliferation assay Method B (5 days), AGS; format: cell-based; conditions: 120 h, 96-well, read-out: Anti-Cell Proliferation IC50 (nM), AGS
Experimental: as §1, with “Method B: Two” for “Two”, “96-well black” for “384-well white”, “5 days” for “72 hours”

Structure (SMILES) | IC50 (AGS (G12D)) | IC50 (KRAS G12D) | IC50 (SW620 (KRAS G12V) [1]) | IC50 (KRAS G12V) | IC50 (GP2D (KRAS G12D) [2]) | IC50 [3] | IC50 [4] | IC50 (CAPAN-2 (KRAS G12V)) | IC50 (HPAC (KRAS G12D)) | IC50 (PANC0403 (KRAS G12D)) | IC50 (SW620 (KRAS G12V) [5]) | IC50 (AsPC1 (KRAS G12D)) | IC50 [6] | IC50 [7] | IC50 (PANC0504 (KRAS G12D)) | IC50 (H2291 (KRAS G12F)) | IC50 (H358 (KRAS G12C)) | IC50 (HCT116 (KRAS G13D)) | IC50 (GP2D (KRAS G12D) [8]) | IC50 (MiaPaCa2 (KRAS G12C)) | other results
C#Cc1c(F)ccc2cc(O)cc(-c3nc4c5c(nc(OC[C@@]67CCCN6C[C@H](F)C7)nc5c3F)N(CC)[C@@H](C)CO4)c12 [Example 127, 4-[(9S)-10-ethyl-4-fluoro-2-{[(2R,7aS)-2-fluorotetrahydro-1H-pyrrolizin-7a(5H)-yl]methoxy}-9-methyl-9,10-dihydro-8H-7-oxa-1,3,6,10-tetraazacyclohepta[1,2,3-de]naphthalen-5-yl]-5-ethynyl-6-fluoronaphthalen-2-ol] | 8.8 nM | 2.61 nM | 9.86 nM | 3.2 nM | 4.54 nM |  |  |  |  |  |  |  |  |  |  |  |  |  |  |  | 
C#Cc1c(F)ccc2cc(O)cc(-c3nc4c5c(nc(OC[C@@]67CCCN6C[C@H](F)C7)nc5c3F)N3CCCC[C@H]3CO4)c12 [compound 1, 5-ethynyl-6-fluoro-4-((S)-4-fluoro-2-(((2R,7aS)-2-fluorotetrahydro-1H-pyrrolizin-7a(5H)-yl)methoxy)-8,8a,9,10,11,12-hexahydro-7-oxa-1,3,6,12a-tetraazabenzo[4,5]cyclohepta[1,2,3-de]naphthalen-5-yl)naphthalen-2-ol] | 6.9 nM |  | 10.4 nM |  | 2.51 nM | 3.24 nM | 3.46 nM | 35.2 nM | 18.9 nM | 27.7 nM | 9.6 nM | 108 nM | 4.29 nM | 14.1 nM | 9 nM | 5.7 nM | 49.2 nM | 474 nM | 2.8 nM | 15.2 nM | IC50 (H23 (KRAS G12C)): 47.4 nM; IC50 (AGS (KRAS G12D)): 14.8 nM
CCc1c(F)ccc2cc(O)cc(-c3nc4c5c(nc(OC[C@@]67CCCN6C[C@H](F)C7)nc5c3F)N3CCCC[C@H]3CO4)c12 [compound 2, 5-ethyl-6-fluoro-4-[(8aS)-4-fluoro-2-{[(2R,7aS)-2-fluorotetrahydro-1H-pyrrolizin-7a(5H)-yl]methoxy}-8,8a,9,10,11,12-hexahydro-7-oxa-1,3,6,12a-tetraazabenzo[4,5]cyclohepta[1,2,3-de]naphthalen-5-yl]naphthalen-2-ol] | 52.3 nM | 3.96 nM | 41.4 nM | 1.83 nM | 17.2 nM | 22.1 nM | 19.6 nM | 60.2 nM | 94.5 nM | 76.7 nM | 43.8 nM | 213 nM | 65 nM | 93.4 nM | 44 nM | 37.2 nM | 222 nM | > 3000 nM | 11.3 nM | 68.1 nM | IC50 (H23 (KRAS G12C)): 145 nM; IC50 (AGS (KRAS G12D)): 86.2 nM
C#Cc1c(F)ccc2cc(O)cc(-c3nc4c5c(nc(OC[C@@]67CCCN6C[C@H](F)C7)nc5c3F)N3CCC[C@@H](O)[C@H]3CO4)c12 [compound 25, (8aR,9R)-5-(8-ethynyl-7-fluoro-3-hydroxynaphthalen-1-yl)-4-fluoro-2-{[(2R,7aS)-2-fluorotetrahydro-1H-pyrrolizin-7a(5H)-yl]methoxy}-8,8a,9,10,11,12-hexahydro-7-oxa-1,3,6,12a-tetraazabenzo[4,5]cyclohepta[1,2,3-de]naphthalen-9-ol] | 166 nM | 2.03 nM | 654 nM | 2.16 nM | 76.4 nM |  |  |  |  |  |  |  |  |  |  |  |  |  |  |  | 
C#Cc1c(F)ccc2cc(O)cc(-c3nc4c5c(nc(OC[C@@]67CCCN6C[C@H](F)C7)nc5c3F)N3CCC[C@H](O)[C@@H]3CO4)c12 [compound 103, (8aS,9S)-5-(8-ethynyl-7-fluoro-3-hydroxynaphthalen-1-yl)-4-fluoro-2-{[(2R,7aS)-2-fluorotetrahydro-1H-pyrrolizin-7a(5H)-yl]methoxy}-8,8a,9,10,11,12-hexahydro-7-oxa-1,3,6,12a-tetraazabenzo[4,5]cyclohepta[1,2,3-de]naphthalen-9-ol] | 924 nM | 22.4 nM | > 3000 nM | 15.9 nM | 580 nM |  |  |  |  |  |  |  |  |  |  |  |  |  |  |  | 
